Holding throughout (experiment): KinomeScan kinase panel, single concentration 10 µM
Holding throughout (assay type): binding

Test [1] concerns the target T1, KinomeScan kinase panel (Homo sapiens, UniProt O15197).
T1 construct: purchased DiscoveRx (KinomeScan)
As to conditions: EPHB6, 10 µM; read-out: score (%).

Test [2] addresses T2, KinomeScan kinase panel (Homo sapiens, UniProt O43283).
T2 construct: purchased DiscoveRx (KinomeScan)
As to conditions: LZK, 10 µM.

Test [3] has as its target T3, KinomeScan kinase panel (Homo sapiens, UniProt O76039).
T3 construct: purchased DiscoveRx (KinomeScan)
As to conditions: CDKL5, 10 µM; read-out: score (%).

For test [4], the target named is T4, KinomeScan kinase panel (Homo sapiens, UniProt P00533, L858R/T790M).
T4 construct: purchased DiscoveRx (KinomeScan)
As to conditions: EGFR(L858R.T790M), 10 µM.

Test [5] has as its target T5, KinomeScan kinase panel (Homo sapiens, UniProt P08581, M1250T).
T5 construct: purchased DiscoveRx (KinomeScan)
Particulars: MET(M1250T), 10 µM.

Test [6] concerns the target T6, KinomeScan kinase panel (Homo sapiens, UniProt P08581, Y1235D).
T6 construct: purchased DiscoveRx (KinomeScan)
Particulars: MET(Y1235D), 10 µM.

Test [7] has as its target T7, KinomeScan kinase panel (Homo sapiens, UniProt P20794).
T7 construct: purchased DiscoveRx (KinomeScan)
Particulars: MAK, 10 µM; read-out: score (%).

Test [8] concerns the target T8, KinomeScan kinase panel (Homo sapiens, UniProt P21860).
T8 construct: purchased DiscoveRx (KinomeScan)
As to conditions: ERBB3, 10 µM; read-out: score (%).

Test [9] has as its target T9, KinomeScan kinase panel (Homo sapiens, UniProt P32298).
T9 construct: purchased DiscoveRx (KinomeScan)
Particulars: GRK4, 10 µM; read-out: score (%).

For test [10], the target named is T10, KinomeScan kinase panel (Homo sapiens, UniProt P42336, C420R).
T10 construct: purchased DiscoveRx (KinomeScan)
As to conditions: PIK3CA(C420R), 10 µM; read-out: score (%).

For test [11], the target named is T11, KinomeScan kinase panel (Homo sapiens, UniProt P42336, E542K).
T11 construct: purchased DiscoveRx (KinomeScan)
Particulars: PIK3CA(E542K), 10 µM; read-out: score (%).

Test [12] deals with T12, KinomeScan kinase panel (Homo sapiens, UniProt P42336, E545A).
T12 construct: purchased DiscoveRx (KinomeScan)
As to conditions: PIK3CA(E545A), 10 µM; read-out: score (%).

Test [13] addresses T13, KinomeScan kinase panel (Homo sapiens, UniProt P42336, H1047L).
T13 construct: purchased DiscoveRx (KinomeScan)
Particulars: PIK3CA(H1047L), 10 µM; read-out: score (%).

Test [14] deals with T14, KinomeScan kinase panel (Homo sapiens, UniProt P42336, Q546K).
T14 construct: purchased DiscoveRx (KinomeScan)
As to conditions: PIK3CA(Q546K), 10 µM; read-out: score (%).

Test [15] has as its target T15, KinomeScan kinase panel (Homo sapiens, UniProt P51617).
T15 construct: purchased DiscoveRx (KinomeScan)
As to conditions: IRAK1, 10 µM; read-out: score (%).

The target in test [16] is T16, KinomeScan kinase panel (Homo sapiens, UniProt P57058).
T16 construct: purchased DiscoveRx (KinomeScan)
As to conditions: HUNK, 10 µM; read-out: score (%).

The target of test [17] is T17, KinomeScan kinase panel (Homo sapiens, UniProt Q13233).
T17 construct: purchased DiscoveRx (KinomeScan)
Particulars: MAP3K1, 10 µM; read-out: score (%).

The target of test [18] is T18, KinomeScan kinase panel (Homo sapiens, UniProt Q13627).
T18 construct: purchased DiscoveRx (KinomeScan)
Particulars: DYRK1A, 10 µM; read-out: score (%).

Test [19] deals with T19, KinomeScan kinase panel (Homo sapiens, UniProt Q15208).
T19 construct: purchased DiscoveRx (KinomeScan)
As to conditions: NDR1, 10 µM; read-out: score (%).

In test [20] the target is T20, KinomeScan kinase panel (Homo sapiens, UniProt Q15835).
T20 construct: purchased DiscoveRx (KinomeScan)
As to conditions: GRK1, 10 µM; read-out: score (%).

Test [21] concerns the target T21, KinomeScan kinase panel (Homo sapiens, UniProt Q52WX2).
T21 construct: purchased DiscoveRx (KinomeScan)
Particulars: kinase SBK1; 10 µM; read-out: score (%).

Test [22] concerns the target T22, KinomeScan kinase panel (Homo sapiens, UniProt Q56UN5).
T22 construct: purchased DiscoveRx (KinomeScan)
Particulars: kinase YSK4; 10 µM; read-out: score (%).

Test [23] addresses T23, KinomeScan kinase panel (Homo sapiens, UniProt Q8IVW4).
T23 construct: purchased DiscoveRx (KinomeScan)
As to conditions: CDKL3, 10 µM; read-out: score (%).

Test [24] addresses T24, KinomeScan kinase panel (Homo sapiens, UniProt Q8WTQ7).
T24 construct: purchased DiscoveRx (KinomeScan)
As to conditions: GRK7, 10 µM; read-out: score (%).

In test [25] the target is T25, KinomeScan kinase panel (Homo sapiens, UniProt Q92630).
T25 construct: purchased DiscoveRx (KinomeScan)
As to conditions: DYRK2, 10 µM; read-out: score (%).

Test [26] has as its target T26, KinomeScan kinase panel (Homo sapiens, UniProt Q9NYY3).
T26 construct: purchased DiscoveRx (KinomeScan)

The target in test [27] is T27, KinomeScan kinase panel (Homo sapiens, UniProt Q9Y2K2).
T27 construct: purchased DiscoveRx (KinomeScan)
Particulars: 10 µM.

For test [28], the target named is T28, KinomeScan kinase panel (Homo sapiens, UniProt Q9Y2U5).
T28 construct: purchased DiscoveRx (KinomeScan)
Particulars: MAP3K2, 10 µM; read-out: score (%).

Test [29] addresses T29, KinomeScan kinase panel (Homo sapiens, UniProt P53779).
T29 construct: purchased DiscoveRx (KinomeScan)
As to conditions: JNK3, 10 µM.

In test [30] the target is T30, KinomeScan kinase panel (Homo sapiens, UniProt O14733).
T30 construct: purchased DiscoveRx (KinomeScan)
As to conditions: MKK7, 10 µM.

Test [31] concerns the target T31, KinomeScan kinase panel (Homo sapiens, UniProt P10721, A829P).
T31 construct: purchased DiscoveRx (KinomeScan)
Particulars: KIT(A829P), 10 µM; read-out: score (%).

The target in test [32] is T32, KinomeScan kinase panel (Homo sapiens, UniProt Q9BX84).
T32 construct: purchased DiscoveRx (KinomeScan)
As to conditions: kinase TRPM6; 10 µM; read-out: score (%).

Test [33] has as its target T33, KinomeScan kinase panel (Homo sapiens, UniProt Q9UL54).
T33 construct: purchased DiscoveRx (KinomeScan)
As to conditions: kinase TAOK2; 10 µM; read-out: score (%).

Test [34] has as its target T34, KinomeScan kinase panel (Plasmodium falciparum, UniProt P61075).
T34 construct: purchased DiscoveRx (KinomeScan)
Particulars: PFPK5(P.falciparum), 10 µM; read-out: score (%).

Each structure is given as a SMILES string. Some results are limits rather than exact numbers.

T25 sequence (Q92630 whole entry): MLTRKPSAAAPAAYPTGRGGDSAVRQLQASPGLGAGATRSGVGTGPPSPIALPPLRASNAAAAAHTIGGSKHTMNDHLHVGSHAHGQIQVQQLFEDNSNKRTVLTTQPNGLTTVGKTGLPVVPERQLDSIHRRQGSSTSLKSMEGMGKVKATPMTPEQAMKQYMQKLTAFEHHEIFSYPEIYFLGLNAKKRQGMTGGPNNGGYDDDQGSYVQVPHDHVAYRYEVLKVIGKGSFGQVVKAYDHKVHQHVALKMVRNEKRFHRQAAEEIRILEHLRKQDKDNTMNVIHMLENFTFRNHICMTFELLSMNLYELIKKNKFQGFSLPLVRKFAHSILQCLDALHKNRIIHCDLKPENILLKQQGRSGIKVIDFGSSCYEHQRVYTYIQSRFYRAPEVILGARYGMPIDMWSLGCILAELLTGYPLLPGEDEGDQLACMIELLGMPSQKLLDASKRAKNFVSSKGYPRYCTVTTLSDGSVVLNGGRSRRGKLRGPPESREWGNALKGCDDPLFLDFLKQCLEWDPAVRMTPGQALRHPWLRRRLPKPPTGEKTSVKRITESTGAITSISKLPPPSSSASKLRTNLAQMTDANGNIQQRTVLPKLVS
T10 sequence (P42336 whole entry C420R): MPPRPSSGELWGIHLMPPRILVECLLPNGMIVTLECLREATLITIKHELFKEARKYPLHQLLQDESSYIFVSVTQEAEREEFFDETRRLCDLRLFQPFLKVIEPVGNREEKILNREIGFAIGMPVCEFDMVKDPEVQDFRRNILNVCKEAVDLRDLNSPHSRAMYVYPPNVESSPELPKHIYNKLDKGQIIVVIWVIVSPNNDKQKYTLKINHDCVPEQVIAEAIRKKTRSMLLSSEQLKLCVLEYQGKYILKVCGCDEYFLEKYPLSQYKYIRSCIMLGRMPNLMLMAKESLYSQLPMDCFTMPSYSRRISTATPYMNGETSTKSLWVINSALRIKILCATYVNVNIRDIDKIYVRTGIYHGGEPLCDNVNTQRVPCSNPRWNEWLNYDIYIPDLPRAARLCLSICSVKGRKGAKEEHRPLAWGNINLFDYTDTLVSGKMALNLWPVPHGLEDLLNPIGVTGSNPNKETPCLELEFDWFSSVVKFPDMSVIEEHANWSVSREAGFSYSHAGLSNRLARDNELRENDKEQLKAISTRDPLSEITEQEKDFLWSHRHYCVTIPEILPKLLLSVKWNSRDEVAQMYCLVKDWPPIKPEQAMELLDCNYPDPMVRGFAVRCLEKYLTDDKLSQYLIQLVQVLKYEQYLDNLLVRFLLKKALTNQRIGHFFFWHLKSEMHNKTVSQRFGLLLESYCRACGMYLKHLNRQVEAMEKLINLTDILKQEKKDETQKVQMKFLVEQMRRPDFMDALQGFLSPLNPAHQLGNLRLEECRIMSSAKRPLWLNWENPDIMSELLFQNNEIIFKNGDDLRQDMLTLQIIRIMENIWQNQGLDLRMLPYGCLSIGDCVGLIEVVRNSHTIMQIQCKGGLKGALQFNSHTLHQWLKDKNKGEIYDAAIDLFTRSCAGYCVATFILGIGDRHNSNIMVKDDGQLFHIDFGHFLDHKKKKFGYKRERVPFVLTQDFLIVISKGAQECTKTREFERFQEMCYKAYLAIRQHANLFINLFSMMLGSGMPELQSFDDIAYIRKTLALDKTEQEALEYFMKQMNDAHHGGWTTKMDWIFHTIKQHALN
T5 sequence (P08581 25-1390 M1250T): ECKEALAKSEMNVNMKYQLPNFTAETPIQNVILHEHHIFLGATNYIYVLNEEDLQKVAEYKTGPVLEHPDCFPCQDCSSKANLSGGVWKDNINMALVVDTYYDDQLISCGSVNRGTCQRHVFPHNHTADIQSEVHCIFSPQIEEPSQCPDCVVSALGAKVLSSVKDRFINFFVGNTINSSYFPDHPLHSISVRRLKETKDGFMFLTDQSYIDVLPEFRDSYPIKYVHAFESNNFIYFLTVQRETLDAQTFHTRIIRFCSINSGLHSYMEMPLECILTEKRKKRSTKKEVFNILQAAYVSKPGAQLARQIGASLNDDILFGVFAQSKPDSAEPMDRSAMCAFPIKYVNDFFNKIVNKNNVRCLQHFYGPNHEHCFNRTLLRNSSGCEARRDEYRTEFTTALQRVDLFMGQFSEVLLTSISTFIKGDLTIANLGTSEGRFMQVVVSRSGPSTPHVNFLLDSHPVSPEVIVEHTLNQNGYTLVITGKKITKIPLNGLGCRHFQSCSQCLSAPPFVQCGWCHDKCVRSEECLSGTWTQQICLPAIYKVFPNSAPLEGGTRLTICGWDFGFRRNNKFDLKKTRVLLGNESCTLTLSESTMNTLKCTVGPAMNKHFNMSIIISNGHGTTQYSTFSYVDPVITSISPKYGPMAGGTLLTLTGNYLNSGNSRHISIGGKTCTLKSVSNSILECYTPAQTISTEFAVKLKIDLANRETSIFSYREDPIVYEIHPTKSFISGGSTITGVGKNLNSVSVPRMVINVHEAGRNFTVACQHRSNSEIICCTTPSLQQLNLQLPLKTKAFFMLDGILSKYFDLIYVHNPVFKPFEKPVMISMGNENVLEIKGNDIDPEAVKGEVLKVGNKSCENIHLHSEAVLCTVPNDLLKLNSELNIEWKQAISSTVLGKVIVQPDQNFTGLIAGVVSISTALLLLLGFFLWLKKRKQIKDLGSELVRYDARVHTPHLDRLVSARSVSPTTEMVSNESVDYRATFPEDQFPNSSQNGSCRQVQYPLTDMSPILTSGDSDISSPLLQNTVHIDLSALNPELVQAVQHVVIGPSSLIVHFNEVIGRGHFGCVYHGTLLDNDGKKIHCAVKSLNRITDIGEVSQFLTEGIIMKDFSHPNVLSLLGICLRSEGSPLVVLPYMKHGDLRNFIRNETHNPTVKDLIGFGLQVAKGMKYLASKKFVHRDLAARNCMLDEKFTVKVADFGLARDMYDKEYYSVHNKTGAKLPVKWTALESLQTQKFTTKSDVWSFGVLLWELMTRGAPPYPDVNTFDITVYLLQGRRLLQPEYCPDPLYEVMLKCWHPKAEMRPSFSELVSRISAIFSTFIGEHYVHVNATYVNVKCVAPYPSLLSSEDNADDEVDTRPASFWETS
T14 sequence (P42336 whole entry Q546K): as the sequence (P42336 whole entry C420R) above, with R420C, Q546K counted along it
T7 sequence (P20794 whole entry): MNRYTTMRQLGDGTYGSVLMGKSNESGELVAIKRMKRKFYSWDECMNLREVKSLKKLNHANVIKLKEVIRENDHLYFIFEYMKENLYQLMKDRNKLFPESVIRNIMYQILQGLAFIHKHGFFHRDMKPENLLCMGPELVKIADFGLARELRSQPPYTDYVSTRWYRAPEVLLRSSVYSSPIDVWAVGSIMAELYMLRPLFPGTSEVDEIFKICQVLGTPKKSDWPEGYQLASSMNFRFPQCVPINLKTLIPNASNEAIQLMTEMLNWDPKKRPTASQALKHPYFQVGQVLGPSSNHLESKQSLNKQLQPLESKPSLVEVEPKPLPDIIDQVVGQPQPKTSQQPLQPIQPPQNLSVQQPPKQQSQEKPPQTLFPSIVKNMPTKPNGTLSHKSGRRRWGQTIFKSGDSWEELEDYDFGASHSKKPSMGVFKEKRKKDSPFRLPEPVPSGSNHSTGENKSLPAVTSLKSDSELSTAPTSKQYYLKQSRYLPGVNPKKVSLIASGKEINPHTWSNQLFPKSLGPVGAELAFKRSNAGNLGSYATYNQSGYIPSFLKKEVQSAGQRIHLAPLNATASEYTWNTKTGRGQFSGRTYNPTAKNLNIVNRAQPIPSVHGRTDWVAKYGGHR
T2 sequence (O43283 whole entry): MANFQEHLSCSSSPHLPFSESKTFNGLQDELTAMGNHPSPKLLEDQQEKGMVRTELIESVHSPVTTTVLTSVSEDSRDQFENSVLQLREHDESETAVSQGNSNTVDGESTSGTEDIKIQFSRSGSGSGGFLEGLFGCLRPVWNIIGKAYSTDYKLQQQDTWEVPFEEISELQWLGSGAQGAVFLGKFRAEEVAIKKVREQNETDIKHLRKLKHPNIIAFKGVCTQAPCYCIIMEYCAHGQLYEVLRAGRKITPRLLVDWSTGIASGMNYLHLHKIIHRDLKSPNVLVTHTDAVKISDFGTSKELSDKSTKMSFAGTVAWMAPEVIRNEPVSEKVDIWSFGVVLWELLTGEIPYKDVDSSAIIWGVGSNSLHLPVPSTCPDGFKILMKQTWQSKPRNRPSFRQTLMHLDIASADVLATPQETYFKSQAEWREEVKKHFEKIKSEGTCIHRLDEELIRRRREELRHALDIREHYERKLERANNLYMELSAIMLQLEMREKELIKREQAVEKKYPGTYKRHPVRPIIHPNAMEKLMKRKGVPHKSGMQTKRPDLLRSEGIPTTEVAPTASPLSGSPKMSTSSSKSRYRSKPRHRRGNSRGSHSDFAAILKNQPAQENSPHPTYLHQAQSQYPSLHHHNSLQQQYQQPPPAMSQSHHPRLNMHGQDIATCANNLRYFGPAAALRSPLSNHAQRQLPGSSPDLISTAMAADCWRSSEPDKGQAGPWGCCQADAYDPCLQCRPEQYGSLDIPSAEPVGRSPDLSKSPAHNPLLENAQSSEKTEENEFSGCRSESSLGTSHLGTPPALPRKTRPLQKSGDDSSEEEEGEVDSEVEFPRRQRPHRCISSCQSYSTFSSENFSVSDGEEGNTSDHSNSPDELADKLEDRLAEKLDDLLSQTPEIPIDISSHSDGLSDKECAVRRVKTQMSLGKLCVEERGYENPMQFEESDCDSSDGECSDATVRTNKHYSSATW
T12 sequence (P42336 whole entry E545A): as the sequence (P42336 whole entry C420R) above, with R420C, E545A counted along it
T13 sequence (P42336 whole entry H1047L): as the sequence (P42336 whole entry C420R) above, with R420C, H1047L counted along it
T11 sequence (P42336 whole entry E542K): as the sequence (P42336 whole entry C420R) above, with R420C, E542K counted along it
T34 sequence (P61075 whole entry): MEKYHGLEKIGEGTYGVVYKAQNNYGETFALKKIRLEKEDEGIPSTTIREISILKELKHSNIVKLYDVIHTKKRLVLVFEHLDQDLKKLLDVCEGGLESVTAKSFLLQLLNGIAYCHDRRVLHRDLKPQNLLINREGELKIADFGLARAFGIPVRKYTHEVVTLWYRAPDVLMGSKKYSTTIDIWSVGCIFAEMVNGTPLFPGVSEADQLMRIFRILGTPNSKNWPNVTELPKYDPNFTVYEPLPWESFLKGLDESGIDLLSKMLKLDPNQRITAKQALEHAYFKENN

As for `CCN1CCN(Cc2ccc(NC(=O)c3ccc(C)c(NC(=O)c4cncc(-c5cccs5)c4)c3)cc2C(F)(F)F)CC1` [ALW-II-41-27], the remaining binding at 10 µM on KinomeScan kinase panel [1] was 1.2%; at KinomeScan kinase panel [3], greater than 30%; at KinomeScan kinase panel [7], greater than 30%; at KinomeScan kinase panel [8], greater than 30%; at KinomeScan kinase panel [9], greater than 30%; at KinomeScan kinase panel [10] it was greater than 30%. The remaining binding at 10 µM at KinomeScan kinase panel [11] is greater than 30%; at KinomeScan kinase panel [12], greater than 30%; on KinomeScan kinase panel [13], greater than 30%; at KinomeScan kinase panel [14], greater than 30%; at KinomeScan kinase panel [15], 17%; at KinomeScan kinase panel [16] it was greater than 30%. The remaining binding at 10 µM at KinomeScan kinase panel [17] was greater than 30%; on KinomeScan kinase panel [18], 0.15%; at KinomeScan kinase panel [19], greater than 30%; on KinomeScan kinase panel [20], greater than 30%; at KinomeScan kinase panel [21], greater than 30%; at KinomeScan kinase panel [22], 21%. The remaining binding at 10 µM came to 9.8% on KinomeScan kinase panel [23], 16% at KinomeScan kinase panel [24], 18% on KinomeScan kinase panel [25] and 3.8% on KinomeScan kinase panel [28]. Further, the “score (%)” value at KinomeScan kinase panel [2] is 15%; on KinomeScan kinase panel [4], “nb (Hits values higher than 30% were considered negative (no binding: nb))”; at KinomeScan kinase panel [5], “nb (Hits values higher than 30% were considered negative (no binding: nb))”; on KinomeScan kinase panel [6], “nb (Hits values higher than 30% were considered negative (no binding: nb))”; on KinomeScan kinase panel [26] (PLK2, 10 µM), “nb (Hits values higher than 30% were considered negative (no binding: nb))”; at KinomeScan kinase panel [27] (QSK), “nb (Hits values higher than 30% were considered negative (no binding: nb))”.

Turning to `CCN1CCN(Cc2ccc(NC(=O)c3ccc(C)c(/C=C/c4cnc5[nH]ccc5c4Cl)c3)cc2C(F)(F)F)CC1` [HG-6-63-01, (E)-3-(2-(4-chloro-1H-pyrrolo[2,3-b]pyridin-5-yl)vinyl)-N-(4-((4-ethylpiperazin-1-yl)methyl)-3-(trifluoromethyl)phenyl)-4-methylbenzamide], the “score (%)” value on KinomeScan kinase panel [29] is reported as “nb (Hits values higher than 30% were considered negative (no binding: nb))”.

As for `CCN1CCN(Cc2ccc(NC(=O)c3ccc(C)c(C#Cc4cccnc4)c3)cc2C(F)(F)F)CC1` [XMD15-44], the “score (%)” value on KinomeScan kinase panel [30] is 11%; at KinomeScan kinase panel [2], 7.4%; at KinomeScan kinase panel [4] it was “nb (Hits values higher than 30% were considered negative (no binding: nb))”; on KinomeScan kinase panel [5] it was “nb (Hits values higher than 30% were considered negative (no binding: nb))”; at KinomeScan kinase panel [6], “nb (Hits values higher than 30% were considered negative (no binding: nb))”; at KinomeScan kinase panel [29], 0.95%. Besides, the “score (%)” value is reported as 100% on KinomeScan kinase panel [26] (kinase PLK2, 10 µM) and 70% on KinomeScan kinase panel [27] (kinase QSK). The remaining binding at 10 µM is 8.8% at KinomeScan kinase panel [1]; 12% at KinomeScan kinase panel [3]; 27% on KinomeScan kinase panel [31]; 9% at KinomeScan kinase panel [7]; greater than 30% at KinomeScan kinase panel [8]; greater than 30% on KinomeScan kinase panel [9]. For the same compound, the remaining binding at 10 µM at KinomeScan kinase panel [10] worked out at 72%; at KinomeScan kinase panel [11] it was 100%; on KinomeScan kinase panel [12], 93%; on KinomeScan kinase panel [13], 100%; at KinomeScan kinase panel [14], 100%; at KinomeScan kinase panel [15], 1.2%. Moreover, the remaining binding at 10 µM at KinomeScan kinase panel [16] was greater than 30%; at KinomeScan kinase panel [17], greater than 30%; on KinomeScan kinase panel [18], greater than 30%; at KinomeScan kinase panel [19], 4%; at KinomeScan kinase panel [20] it was greater than 30%; at KinomeScan kinase panel [21], 88%. The remaining binding at 10 µM at KinomeScan kinase panel [22] was 0.1%; at KinomeScan kinase panel [23], 0.65%; on KinomeScan kinase panel [24], greater than 30%; on KinomeScan kinase panel [25], greater than 30%; at KinomeScan kinase panel [32], 49%; on KinomeScan kinase panel [33], 0.15%. The remaining binding at 10 µM at KinomeScan kinase panel [28] turned out to be 0.15%; on KinomeScan kinase panel [34] it was 89%.

The values are drawn from article PMC4457528, “Identification of Novel Small Molecule Inhibitors of Oncogenic RET Kinase” (PLoS ONE, 2015).
